Test results from patent publication US6706740B2, “Fungicidal heterocyclic aromatic amides and their compositions, methods of use and preparation” (Dow AgroSciences LLC, priority 1999, dated 2004).
Read-outs that look alike come from different tables or passages of the source.

Columns and labels:
Ustilago maydis (USTIMA) = test: microbe, parasite or virus in culture; format: cell-based; details: Mycosarcoma maydis, read-out: USTIMA in vitro Growth Inhibition
Septoria tritici—SEPTTR = test: Leaf Blotch of Wheat, in vivo whole plant, 24 Hour Protectant; details: for pest or weed control at 100 ppm: Zymoseptoria tritici, 24 h, read-out: SEPTTR in vivo 1 Day Protectant
[1] = test system: Phytophthora infestans—PHYTIN; test: whole plant or invertebrate; format: in vivo; details: Phytophthora, in Solanum lycopersicum, 24 h, read-out: PHYTIN in vivo 1 Day Protectant
[2] = test system: Leptosphaeria nodorum—LEPTNO; test: Glume Blotch of Wheat, in vivo whole plant, 24 Hour Protectant; details: for pest or weed control at 100 ppm: Leptosphaeria, read-out: LEPTNO in vivo 1 Day Protectant
[3] = test system: Puccinia recondita—PUCCRT; test: Brown Rust of Wheat, in vivo whole plant, 24 Hour Protectant; details: for pest or weed control at 100 ppm: Puccinia, read-out: PUCCRT in vivo 1 Day Protectant
Erysiphe graminis—ERYSGT = test: Powdery Mildew of Wheat, in vivo whole plant, 24 Hour Protectant; details: Erysiphe, read-out: ERYSGT in vivo 1 Day Protectant
[4] = test system: Stagonospora nodorum (Leptosphaeria nodorum—LEPTNO); test: In vitro fungal growth inhibition, Stagonospora nodorum (LEPTNO); format: cell-based; details: Leptosphaeria, read-out: LEPTNO in vitro Growth Inhibition
[5] = test system: Mycosphaerella graminicola (Septoria tritici—SEPTTR); test: In vitro fungal growth inhibition, Mycosphaerella graminicola (SEPTTR); format: cell-based; details: Zymoseptoria tritici, read-out: SEPTTR in vitro Growth Inhibition
[6] = test system: Rhizoctonia solani (RHIZSO); test: microbe, parasite or virus in culture; format: cell-based; details: Rhizoctonia solani, read-out: RHIZSO in vitro Growth Inhibition
[7] = test system: Magnaporthe grisea (Pyricularia oryzae—PYRIOR); test: microbe, parasite or virus in culture; format: cell-based; details: Pyricularia oryzae, read-out: PYRIOR in vitro Growth Inhibition
[8] = test system: Phytophthora infestans (PHYTIN); test: microbe, parasite or virus in culture; format: cell-based; details: Phytophthora infestans, read-out: PHYTIN in vitro Growth Inhibition
[9] = 100 ppm spray, 24 hour protectant, wheat, control of fungal infection vs untreated plants
[10] = 100 ppm spray, wheat, 24 hour protectant, control of fungal infection vs untreated plants
[11] = wheat plants sprayed at 100 ppm, inoculated after 24 hours, control of fungal infection vs untreated plants
[12] = 100 ppm spray, wheat, 24 hour protectant, % control of fungal infection vs untreated plants

SMILES | inhibition at 25 ppm (Ustilago maydis (USTIMA)) [%] | pest or weed control at 100 ppm [1] [%] | inhibition at 25 ppm [6] [%] | inhibition at 25 ppm [7] [%] | inhibition at 25 ppm [8] [%] | pest or weed control at 100 ppm (Septoria tritici—SEPTTR; [11]) [%] | pest or weed control at 100 ppm (Erysiphe graminis—ERYSGT; [11]) [%] | LEPTNO in vivo 1 Day Protectant [2, 12] | PUCCRT in vivo 1 Day Protectant [3, 12] | pest or weed control at 100 ppm (Erysiphe graminis—ERYSGT; [12]) [%] | further results
COc1ccnc(C(=O)NC2CCN(C(=O)c3ccccc3)CC2)c1O [Compound 308] | < 80 | < 25 |  |  |  |  |  |  |  |  | pest or weed control at 100 ppm (Septoria tritici—SEPTTR; [9]): 25 to 74%; pest or weed control at 100 ppm [2, 9]: < 25%; pest or weed control at 100 ppm [3, 9]: < 25%; pest or weed control at 100 ppm (Erysiphe graminis—ERYSGT; [9]): 25 to 74%
COc1ccnc(C(=O)N[C@H]2COC(=O)[C@H](Cc3ccccc3)C[C@H](C)OC2=O)c1O [Compound 382] | < 80 |  | < 80 | < 80 | < 80 |  |  |  |  |  | inhibition at 25 ppm ([4]; 25 ppm in growth medium): < 80%; inhibition at 25 ppm ([5]; 25 ppm in growth medium): > 80%; pest or weed control at 100 ppm (Septoria tritici—SEPTTR; [10]): 25 to 74%; LEPTNO in vivo 1 Day Protectant [2, 10]: + +; pest or weed control at 100 ppm [3, 10]: 25 to 74%; pest or weed control at 100 ppm (Erysiphe graminis—ERYSGT; [10]): < 25%
CCCC[C@H]1C(=O)O[C@H](C)C(NC(=O)c2cccc(NC(=O)c3nccc(OC)c3O)c2O)C(=O)O[C@@H](C)[C@@H]1OC(=O)CC(C)C (stereo partly shown) [Compound 473] |  | < 25 |  |  |  |  |  |  |  |  | pest or weed control at 100 ppm (Septoria tritici—SEPTTR): 25 to 74%; LEPTNO in vivo 1 Day Protectant ([2]; in vivo): + +; pest or weed control at 100 ppm ([3]; 24 h): 25 to 74%; pest or weed control at 100 ppm (Erysiphe graminis—ERYSGT; 24 h): < 25%
CC(C)C(=O)O[C@H]1[C@H](C)OC(=O)[C@@H](NC(=O)c2ccncc2O)COC(=O)[C@@H]1Cc1ccccc1 [Compound 513] |  | < 25 |  |  |  | < 25 | < 25 |  |  |  | LEPTNO in vivo 1 Day Protectant [2, 11]: + +; pest or weed control at 100 ppm [3, 11]: 25 to 74%
Cc1ccnc(C(=O)NC2CC(C)(C)CC(C)(C)C2)c1OC(=O)C(C)C [Compound 571] |  | 25 to 74 |  |  |  | < 25 | < 25 |  |  |  | pest or weed control at 100 ppm [2, 11]: 25 to 74%; pest or weed control at 100 ppm [3, 11]: < 25%
COc1ccnc(C(=O)N[C@H]2CO[C@@H](C(C)Cc3ccc(C(C)(C)C)cc3)OC2)c1OC(C)=O (stereo partly shown) [Compound 593] | < 80 | < 25 | < 80 | < 80 | < 80 | 25 to 74 | < 25 |  |  |  | inhibition at 25 ppm ([4]; 25 ppm in the growth medium): < 80%; inhibition at 25 ppm ([5]; 25 ppm in the growth medium): < 80%; PUCCRT in vivo 1 Day Protectant [3, 11]: + +
COc1ccnc(C(=O)N[C@H]2COC(=O)[C@H](Cc3ccccc3)[C@@H](OC(=O)C(C)C)[C@H](C)OC2=O)c1OC(=O)OCc1ccccc1 [Compound 695] | < 80 | < 25 | < 80 | > 80 | < 80 |  |  | + + | + + | < 25 | inhibition at 25 ppm ([4]; 25 ppm in growth medium): < 80%; inhibition at 25 ppm ([5]; 25 ppm in growth medium): < 80%
COCCC(=O)Oc1c(OC)ccnc1C(=O)N[C@H]1COC(=O)[C@H](Cc2ccccc2)[C@@H](OC(=O)CCOC)[C@H](C)OC1=O [Compound 705] |  | < 25 |  |  |  |  |  | + + | + + | < 25 | pest or weed control at 100 ppm (Septoria tritici—SEPTTR; [12]): 25 to 74%
COc1ccnc(C(=O)N[C@H]2COC(=O)[C@H](Cc3ccccc3)[C@@H](OC(=O)C(C)C)[C@H](C)OC2=O)c1O[Si](C)(C)C(C)(C)C [Compound 720] |  | < 25 |  |  |  |  |  | + + | + + | < 25 | SEPTTR in vivo 1 Day Protectant (Septoria tritici—SEPTTR; [12]): + +
